Test results published in patent publication US9708314B2, “Heterocyclic amide compound” (NISSAN CHEMICAL INDUSTRIES, LTD., priority 2013, dated 2017).

Tests used:
Type in all cases: in vivo
[1] = test system: Echinochloa oryzacola Vasing.; experiment: Test Example 1: herbicidal activity, application before weed generation in submerged conditions; settings: Application herbicide amount 320 g/ha; Seventeenth Table
Outline: (§1)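 Rating, on a six-step scale from almost no effect (0) to almost completely withered (5), was made three weeks after pre-emergence treatment. Treatment was surface application to flooded pots at g/ha rates, with plants kept at 25° C. to 30° C.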

Monochoria vaginalis [2] = experiment: as above; settings: Application herbicide amount 320 g/ha; Seventeenth Table
Outline: as §1

Scirpus juncoides [3] = experiment: as above; settings: Application herbicide amount 320 g/ha; Seventeenth Table
Outline: as §1

Chenopodium album = experiment: Test Example 4: herbicidal effect by application to foliage (diluvial soil, plastic box); settings: application to foliage, application herbicide amount 320 g/ha
Outline: (§2)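 Emulsion-formulated compound, diluted to a predetermined g/ha dose, applied by small sprayer to leaves and stems of 14-day-old seedlings grown in sterilized diluvial soil. Effect rated on 0–5 herbicidal-ratio scale three weeks on.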

[4] = test system: Echinochloa crus-galli var. crus-galli; experiment: as above; settings: application to foliage, application herbicide amount 320 g/ha
Outline: as §2

Triticum aestivum = experiment: Test Example 4: effect on crop by application to foliage (diluvial soil, plastic box); settings: application to foliage, application herbicide amount 320 g/ha
Outline: as §2

[5] = test system: Echinochloa oryzacola Vasing.; experiment: Test Example 2: herbicidal activity, application during weed generation in submerged conditions; settings: Eighteenth Table; application herbicide amount 320 g/ha
Outline: (§3)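 Post-emergence application under submerged conditions: water-diluted emulsion dosed onto the water surface (g/ha) when weeds reach one- to two-leaf stage. Soil flooded to 4 cm; greenhouse 25–30 °C. Herbicidal ratio graded in six classes, 0 (≤5%) to 5 (≥90%), at three weeks.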

Monochoria vaginalis [6] = experiment: as above; settings: Eighteenth Table; application herbicide amount 320 g/ha
Outline: as §3

Scirpus juncoides [7] = experiment: as above; settings: Eighteenth Table; application herbicide amount 320 g/ha
Outline: as §3

Compound | A: Echinochloa oryzicola Vasing. (herbicidal effect grade) [1] | C: Monochoria vaginalis (herbicidal effect grade) (Monochoria vaginalis [2]) | B: Scirpus juncoides (herbicidal effect grade) (Scirpus juncoides [3]) | O (Chenopodium album) herbicidal effect (Chenopodium album) | H (Echinochloa crus-galli var. crus-galli) herbicidal effect [4] | e (Triticum aestivum) effect on crop (Triticum aestivum) | A (Echinochloa oryzicola Vasing.) herbicidal ratio grade [5] | C (Monochoria vaginalis) herbicidal ratio grade (Monochoria vaginalis [6]) | B (Scirpus juncoides) herbicidal ratio grade (Scirpus juncoides [7])
Cc1cc(-c2nnc3c(C(=O)Nc4nnc(C)o4)ccc(C(F)(F)F)n23)no1 [1-022] | 2 (Herbicidal ratio of 20% or more and less than 40%) | 0 (Herbicidal ratio of 5% or less (almost no effect)) | 2 (Herbicidal ratio of 20% or more and less than 40%) | 5 (Herbicidal ratio of 90% or more (almost completely withered)) | 5 (Herbicidal ratio of 90% or more (almost completely withered)) | 1 (Herbicidal ratio of 5% or more and less than 20%) | 2 (Herbicidal ratio of 20% or more and less than 40%) | 0 (Herbicidal ratio of 5% or less (almost no effect)) | 2 (Herbicidal ratio of 20% or more and less than 40%)
CCCc1nnc2c(C(=O)Nc3nnc(C)o3)ccc(C(F)(F)F)n12 [1-024] | 5 (Herbicidal ratio of 90% or more (almost completely withered)) | 0 (Herbicidal ratio of 5% or less (almost no effect)) | 2 (Herbicidal ratio of 20% or more and less than 40%) | 5 (Herbicidal ratio of 90% or more (almost completely withered)) | 4 (Herbicidal ratio of 70% or more and less than 90%) | 0 (Herbicidal ratio of 5% or less (almost no effect)) | 4 (Herbicidal ratio of 70% or more and less than 90%) | 0 (Herbicidal ratio of 5% or less (almost no effect)) | 1 (Herbicidal ratio of 5% or more and less than 20%)
Cc1nnc(NC(=O)c2ccc(C(F)(F)F)n3c(C4CCCC4)nnc23)o1 [1-026] | 5 (Herbicidal ratio of 90% or more (almost completely withered)) | 4 (Herbicidal ratio of 70% or more and less than 90%) | 4 (Herbicidal ratio of 70% or more and less than 90%) | 5 (Herbicidal ratio of 90% or more (almost completely withered)) | 3 (Herbicidal ratio of 40% or more and less than 70%) | 1 (Herbicidal ratio of 5% or more and less than 20%) | 3 (Herbicidal ratio of 40% or more and less than 70%) | 0 (Herbicidal ratio of 5% or less (almost no effect)) | 1 (Herbicidal ratio of 5% or more and less than 20%)
CCOCc1nnc2c(C(=O)Nc3nnc(C)o3)ccc(C(F)(F)F)n12 [1-027] | 5 (Herbicidal ratio of 90% or more (almost completely withered)) | 4 (Herbicidal ratio of 70% or more and less than 90%) | 3 (Herbicidal ratio of 40% or more and less than 70%) | 5 (Herbicidal ratio of 90% or more (almost completely withered)) | 5 (Herbicidal ratio of 90% or more (almost completely withered)) | 2 (Herbicidal ratio of 20% or more and less than 40%) | 4 (Herbicidal ratio of 70% or more and less than 90%) | 3 (Herbicidal ratio of 40% or more and less than 70%) | 3 (Herbicidal ratio of 40% or more and less than 70%)
Cc1nnc(NC(=O)c2ccc(C(F)(F)F)n3c(C4=NOC(C)(C)C4)nnc23)o1 [1-029] | 5 (Herbicidal ratio of 90% or more (almost completely withered)) | 4 (Herbicidal ratio of 70% or more and less than 90%) | 3 (Herbicidal ratio of 40% or more and less than 70%) | 5 (Herbicidal ratio of 90% or more (almost completely withered)) | 5 (Herbicidal ratio of 90% or more (almost completely withered)) | 1 (Herbicidal ratio of 5% or more and less than 20%) | 3 (Herbicidal ratio of 40% or more and less than 70%) | 3 (Herbicidal ratio of 40% or more and less than 70%) | 2 (Herbicidal ratio of 20% or more and less than 40%)
CSCc1nnc2c(C(=O)Nc3nnc(C)o3)ccc(C(F)(F)F)n12 [1-030] | 5 (Herbicidal ratio of 90% or more (almost completely withered)) | 3 (Herbicidal ratio of 40% or more and less than 70%) | 3 (Herbicidal ratio of 40% or more and less than 70%) | 5 (Herbicidal ratio of 90% or more (almost completely withered)) | 5 (Herbicidal ratio of 90% or more (almost completely withered)) | 3 (Herbicidal ratio of 40% or more and less than 70%) | 4 (Herbicidal ratio of 70% or more and less than 90%) | 3 (Herbicidal ratio of 40% or more and less than 70%) | 3 (Herbicidal ratio of 40% or more and less than 70%)
Cc1nnc(NC(=O)c2ccc(C(F)(F)F)n3c(CSCC(F)(F)F)nnc23)o1 [1-031] | 4 (Herbicidal ratio of 70% or more and less than 90%) | 3 (Herbicidal ratio of 40% or more and less than 70%) | 3 (Herbicidal ratio of 40% or more and less than 70%) | 5 (Herbicidal ratio of 90% or more (almost completely withered)) | 5 (Herbicidal ratio of 90% or more (almost completely withered)) | 1 (Herbicidal ratio of 5% or more and less than 20%) | 3 (Herbicidal ratio of 40% or more and less than 70%) | 2 (Herbicidal ratio of 20% or more and less than 40%) | 2 (Herbicidal ratio of 20% or more and less than 40%)
CCSc1nnc2c(C(=O)Nc3nnc(C)o3)ccc(C(F)(F)F)n12 [1-032] | 5 (Herbicidal ratio of 90% or more (almost completely withered)) | 2 (Herbicidal ratio of 20% or more and less than 40%) | 3 (Herbicidal ratio of 40% or more and less than 70%) | 5 (Herbicidal ratio of 90% or more (almost completely withered)) | 5 (Herbicidal ratio of 90% or more (almost completely withered)) | 1 (Herbicidal ratio of 5% or more and less than 20%) | 4 (Herbicidal ratio of 70% or more and less than 90%) | 3 (Herbicidal ratio of 40% or more and less than 70%) | 3 (Herbicidal ratio of 40% or more and less than 70%)
Cc1nnc(NC(=O)c2ccc(C(F)(F)F)n3c(SC(C)C)nnc23)o1 [1-033] | 5 (Herbicidal ratio of 90% or more (almost completely withered)) | 3 (Herbicidal ratio of 40% or more and less than 70%) | 4 (Herbicidal ratio of 70% or more and less than 90%) | 5 (Herbicidal ratio of 90% or more (almost completely withered)) | 5 (Herbicidal ratio of 90% or more (almost completely withered)) | 1 (Herbicidal ratio of 5% or more and less than 20%) | 4 (Herbicidal ratio of 70% or more and less than 90%) | 3 (Herbicidal ratio of 40% or more and less than 70%) | 4 (Herbicidal ratio of 70% or more and less than 90%)
CC[S+]([O-])c1nnc2c(C(=O)Nc3nnc(C)o3)ccc(C(F)(F)F)n12 (stereo not drawn) [1-034] | 4 (Herbicidal ratio of 70% or more and less than 90%) | 4 (Herbicidal ratio of 70% or more and less than 90%) | 4 (Herbicidal ratio of 70% or more and less than 90%) | 5 (Herbicidal ratio of 90% or more (almost completely withered)) | 5 (Herbicidal ratio of 90% or more (almost completely withered)) | 2 (Herbicidal ratio of 20% or more and less than 40%) | 4 (Herbicidal ratio of 70% or more and less than 90%) | 4 (Herbicidal ratio of 70% or more and less than 90%) | 3 (Herbicidal ratio of 40% or more and less than 70%)
